We go through 27 compounds from patent US6251897A, “6-phenyltetrahydro-1,3-oxazin-2-one derivative and pharmaceutical composition containing the same” (Nikken Chemicals Co., LTD, priority 1996, dated 2001).

This assay has as its system Type IV PDE. The assay can be described thus: PDE inhibitory activity, type IV isozyme (3H-cAMP hydrolysis). It is filed as biochemical. The settings on record: partially purified from rat neutrophils, 30° C., 30 minutes. As to the method:
Type I, III, IV, and V PDE isozymes were prepared to study the PDE inhibitory activities and selectivities with the compound of the invention [Trends Pharmacol. Sci., 12, 19-27 (1992)]. Type I PDE was purchased from Sigma Corp. Type III, IV, and V PDE isozymes were partially purified from rats platelets (Type III and V) or neutrophils (Type IV). Each enzyme source was homogenized in a buffer (pH 6.5) containing 20 mM bisTris, 2 mM EDTA (ethylenediamine tetraacetate), 0.1 mM PMSF (phenylmethylsulfonyl fluoride), 5 mM 2-mercaptoethanol, 0.001 mM pepstatin, and 0.01 mM leupeptin and was centrifuged at 30,000×G for 30 minutes to obtain a supernatant, which was applied to an ion exchange column (Q-sepharose First Flow, Pharmacia Corp.) and was eluted with 0 to 1M sodium acetate. Partially purified isozymes were identified by observing the effects of conventional inhibitors.
Each PDE isozyme and the test compound dissolved in DMSO (dimethyl sulfoxide) were added to 50 mM Tris-HCl buffer containing 5 mM magnesium chloride. ^3 H-cAMP (for type III and IV PDE) or ^3 H-cGMP (for type I and V PDE) were added as substrates and were reacted at 30° C. for 30 minutes. The reaction was terminated by placing the test tube in boiling water of 100° C. for 5 minutes. The nucleotides formed by PDE were broken down by 5'-nucleotidase to ^3 H-adenosine or ^3 H-guanosine. The unreacted substrate and reaction product were separated through an ion-exchange column (QAE sephadex, Pharmacia Corp.) The eluted ^3 H-nucleoside was measured for its radioactivity by a liquid scintillation counter. The inhibiting activities of the compound of the present invention are shown by the IC50 value (M). Further, the inhibitory activities of the test samples against Type I, III, and V are 1/10 or less than that against type IV.
As for `CCCCOc1cc(C2(C)CCN(C)C(=O)O2)ccc1OC` (stereo not drawn) [Compound No. 54, 6-(3-butoxy-4-methoxyphenyl)-3,6-dimethyl-3,4,5,6-tetrahydro-2H-1,3-oxazin-2-one], the IC50 was determined as 2 µM.

`COc1ccc(C2CCNC(=O)O2)cc1OCCc1ccccn1` (stereo not drawn) [Compound No. 55, 6-[4-methoxy-3-[2-(2-pyridyl)ethoxy]phenyl]-3,4,5,6-tetrahydro-2H-1,3-oxazin-2-one] came in with an IC50 of 1.7 µM.

The compound `COc1ccc(C2CCNC(=O)O2)cc1OC1c2ccccc2CCc2ccccc21` (stereo not drawn) [Compound No. 58, 6-[3-(10,11-dihydro-5H-dibenzo[a,d]cyclohepten-5-yloxy)-4-methoxyphenyl]-3,4,5,6-tetrahydro-2H-1,3-oxazin-2-one] had an IC50 of 9.4 µM.

`COc1ccc(C2CCN(C)C(=O)O2)cc1OC1c2ccccc2CCc2ccccc21` (stereo not drawn) [Compound No. 59, 6-[3-(10,11-dihydro-5H-dibenzo[a,d]cyclohepten-5-yloxy)-4-methoxyphenyl]-3-methyl-3,4,5,6-tetrahydro-2H-1,3-oxazin-2-one] registered an IC50 of 27 µM.

The compound `COc1ccc(C2CCNC(=O)O2)cc1OCCCN1CCN(Cc2ccccc2)CC1` (stereo not drawn) [Compound No. 60, 6-[3-[3-(4-benzyl-1-piperazinyl)propoxy]-4-methoxyphenyl]-3,4,5,6-tetrahydro-2H-1,3-oxazin-2-one] registered an IC50 of 52 µM.

In turn, `COc1ccc(C2CCN(C)C(=O)O2)cc1OCC1CCC1` (stereo not drawn) [Compound No. 62, 6-(3-cyclobutylmethyloxy-4-methoxyphenyl)-3-methyl-3,4,5,6-tetrahydro-2H-1,3-oxazin-2-one] came in with an IC50 of 3.3 µM.

Regarding `COc1ccc(C2CCNC(=O)O2)cc1OCC1(C)CC1` (stereo not drawn) [Compound No. 63, 6-[4-methoxy-3-[(1-methylcyclopropyl)methyloxy]phenyl]-3,4,5,6-tetrahydro-2H-1,3-oxazin-2-one], the IC50 was found to be 3.4 µM.

Turning to `COc1ccc(C2CCN(C)C(=O)O2)cc1OCC1(C)CC1` (stereo not drawn) [Compound No. 64, 6-[4-methoxy-3-[(1-methylcyclopropyl)methyloxy]phenyl]-3-methyl-3,4,5,6-tetrahydro-2H-1,3-oxazin-2-one], inhibition was half-maximal at 4.6 µM (IC50).

Compound `COc1ccc(C2CCNC(=O)O2)cc1OCCc1cccc2ccccc12` (stereo not drawn) [Compound No. 67, 6-[4-methoxy-3-[2-(1-naphthyl)ethoxy]phenyl]-3,4,5,6-tetrahydro-2H-1,3-oxazin-2-one] yielded an IC50 of 1.1 µM.

The compound `COc1ccc(C2CCN(C)C(=O)O2)cc1OCCc1cccc2ccccc12` (stereo not drawn) [Compound No. 68, 6-[4-methoxy-3-[2-(1-naphthyl)ethoxy]phenyl]-3-methyl-3,4,5,6-tetrahydro-2H-1,3-oxazin-2-one] gave an IC50 of 2.6 µM.

`CCC(CC)COc1cc(C2CCNC(=O)O2)ccc1OC` (stereo not drawn) [Compound No. 69, 6-[3-(2-ethylbutoxy)-4-methoxyphenyl]-3,4,5,6-tetrahydro-2H-1,3-oxazin-2-one]: the IC50 came to 5 µM.

`CCC(CC)COc1cc(C2CCN(C)C(=O)O2)ccc1OC` (stereo not drawn) [Compound No. 70, 6-[3-(2-ethylbutoxy)-4-methoxyphenyl]-3-methyl-3,4,5,6-tetrahydro-2H-1,3-oxazin-2-one] showed an IC50 of 3.5 µM.

Regarding `COc1ccc(C2CCNC(=O)O2)cc1OCCc1scnc1C` (stereo not drawn) [Compound No. 72, 6-[4-methoxy-3-[2-(4-methyl-5-thiazolyl)ethoxy]phenyl]-3,4,5,6-tetrahydro-2H-1,3-oxazin-2-one], the IC50 was 8.3 µM.

With `COc1ccc(C2CCNC(=O)O2)cc1OCCc1ccc(F)cc1` (stereo not drawn) [Compound No. 74, 6-[3-[2-(4-fluorophenyl)ethoxy]-4-methoxyphenyl]-3,4,5,6-tetrahydro-2H-1,3-oxazin-2-one], the 50% inhibitory concentration (IC50) is 1.3 µM.

On to `COc1ccc(C2CCN(C)C(=O)O2)cc1OCCc1ccc(F)cc1` (stereo not drawn) [Compound No. 75, 6-[3-[2-(4-fluorophenyl)ethoxy]-4-methoxyphenyl]-3-methyl-3,4,5,6-tetrahydro-2H-1,3-oxazin-2-one], for which inhibition was half-maximal at 1.8 µM (IC50).

`COc1ccc(C2CCN(C)C(=O)O2)cc1OCC1CCCC1` (stereo not drawn) [Compound No. 77, 6-(3-cyclopentylmethyloxy-4-methoxyphenyl)-3-methyl-3,4,5,6-tetrahydro-2H-1,3-oxazin-2-one] registered an IC50 of 3.3 µM.

`COc1ccc(C2CCNC(=O)O2)cc1OC1(C)CCCC1` (stereo not drawn) [Compound No. 80, 6-[4-methoxy-3-(1-methylcyclopentyloxy)phenyl]-3,4,5,6-tetrahydro-2H-1,3-oxazin-2-one] displayed an IC50 of 1.5 µM.

Compound `COc1ccc(C2CCNC(=O)O2)cc1OCCOCc1ccccc1` (stereo not drawn) [Compound No. 83, 6-[3-(2-benzyloxyethoxy)-4-methoxyphenyl]-3,4,5,6-tetrahydro-2H-1,3-oxazin-2-one] gave a 50% inhibitory concentration (IC50) of 3.4 µM.

Consider `COc1ccc(C2CCN(C)C(=O)O2)cc1OCCOCc1ccccc1` (stereo not drawn) [Compound No. 84, 6-[3-(2-benzyloxyethoxy)-4-methoxyphenyl]-3-methyl-3,4,5,6-tetrahydro-2H-1,3-oxazin-2-one], for which inhibition was half-maximal at 3.1 µM (IC50).

`COc1ccc(C2OC(=O)NCC2(C)C)cc1OC1CCCC1` (stereo not drawn) [Compound No. 85, 6-(3-cyclopentyloxy-4-methoxyphenyl)-5,5-dimethyl-3,4,5,6-tetrahydro-2H-1,3-oxazin-2-one] had an IC50 of 0.78 µM.

In turn, `COc1ccc(C2OC(=O)N(C)CC2(C)C)cc1OC1CCCC1` (stereo not drawn) [Compound No. 86, 6-(3-cyclopentyloxy-4-methoxyphenyl)-3,5,5-trimethyl-3,4,5,6-tetrahydro-2H-1,3-oxazin-2-one] displayed an IC50 of 0.86 µM.

For the compound `COc1ccc(C2OC(=O)NCC2(C)C)cc1OC1Cc2ccccc2C1` (stereo not drawn) [Compound No. 87, 5,5-dimethyl-6-[3-(2-indanyloxy)-4-methoxyphenyl]-3,4,5,6-tetrahydro-2H-1,3-oxazin-2-one], the IC50 is 0.088 µM.

For `COc1ccc(C2OC(=O)N(C)CC2(C)C)cc1OC1Cc2ccccc2C1` (stereo not drawn) [Compound No. 88, 6-[3-(2-indanyloxy)-4-methoxyphenyl]-3,5,5-trimethyl-3,4,5,6-tetrahydro-2H-1,3-oxazin-2-one], inhibition was half-maximal at 0.19 µM (IC50).

`COc1ccc(C2CCNC(=O)O2)cc1OC1CCN(Cc2ccccc2)CC1` (stereo not drawn) [Compound No. 89, 6-[3-(1-benzyl-4-piperidyloxy)-4-methoxyphenyl]-3,4,5,6-tetrahydro-2H-1,3-oxazin-2-one] returned an IC50 of 35 µM.

For the compound `COc1ccc(C2CCNC(=O)O2)cc1OCCOCC1CC1` (stereo not drawn) [Compound No. 90, 6-[3-[2-(cyclopropylmethyloxy)ethoxy]-4-methoxyphenyl]-3,4,5,6-tetrahydro-2H-1,3-oxazin-2-one], 1.9 µM corresponded to half-maximal inhibition (IC50).

Compound `COc1ccc(C2CCNC(=O)O2)cc1OC1CCOC1` (stereo not drawn) [Compound No. 93, 6-[3-(3-tetrahydrofuryloxy)-4-methoxyphenyl]-3,4,5,6-tetrahydro-2H-1,3-oxazin-2-one] came in with an IC50 of 3.7 µM.

Regarding `COc1ccc(C2CCN(C)C(=O)O2)cc1OCCc1scnc1C` (stereo not drawn) [compound 73, 6-[4-methoxy-3-[2-(4-methyl-5-thiazolyl)ethoxy]phenyl]-3-methyl-3,4,5,6-tetrahydro-2H-1,3-oxazin-2-one], the IC50 was 7.3 µM.
